US20230321101A1, “METHODS AND USES OF HALOFUGINONE” (The Regents of the University of California, priority 2020, published 2023)
Read-outs that look alike come from different tables or passages of the source.

Tests used:
[1] = test system: SARS-CoV-2 spike RNA; test: microbe, parasite or virus in culture; format: cell-based; conditions: Vero E6
[2] = test system: primary human bronchial epithelial cells; conditions: 10 nM and 100 nM
[3] = test system: core HSPGs in Hep3B cells; test: HSPG core proteins by SDS-PAGE with mAb 3G10 in Hep3B cells; format: cell-based, human
[4] = test system: Huh 7.5 cells; test: Cell viability of Huh 7.5 cells, alamarBlue; format: cell-based, human; conditions: Huh 7.5, 24 hr
Procedure: FIG. 28. Cell viability in Huh 7.5 cells after treatment for 24 hours with Halofuginone. Cell viability was measured using alamarBlue staining in HuH 7.5 cells at indicated concentrations of halofuginone after a 24 hr treatment (n=3 per dose). Data shown as mean±S.D. Statistics performed by 1-way ANOVA (ns: p>0.05, *:p≤0.01).
Cell Culture. Huh-7.5 cells^1 were generously provided by Charles M. Rice (Rockefeller University, New York, NY). Hep3B, BHK-15 and Calu-3 cells were from ATCC and were grown in DMEM medium containing 10% % fetal bovine serum, and 100 IU/ml of penicillin, 100 μg/ml of streptomycin sulfate and nonessential amino acids. BHK-15 were grown in Modified Eagle's supplemented with 10% fetal bovine serum and nonessential amino acids (Gibco, #11140-050). Hep3B, A375 and Vero E6 cells were from ATCC. The Hep3B cells carrying mutations in HS biosynthetic enzymes was derived from the parent ATCC Hep3B stock, and have been described previously^2. All cells were supplemented with 10% FBS, 100 IU/ml of penicillin and 100 μg/ml of streptomycin sulfate and grown under an atmosphere of 5% CO2 and 95% air. Cells were passaged before 80% confluence was reached and seeded as explained for the individual assays. Cell viability was measured using LDH leakage (Promega) or alamarBleu (Thermo Fisher).

[5] = test system: heparan sulfate of Hep3B cells; test: HS content and disaccharide analysis by LC-MS in Hep3B cells; format: cell-based, human
[6] = test system: hepcidin expression; test: Hepcidin expression in Hep3B human hepatocytes; format: cell-based
Procedure: FIG. 6. Hep3B—18 hr incubation.
FIG. 7. Hep3B—24 hr incubation.

[7] = test system: SARS-CoV-2; test: SARS-CoV-2 infected hamsters, oral halofuginone, lung pathology; format: in vivo; conditions: vs PBS
Description: FIG. 37A-FIG. 37F: Oral dosing of halofuginone to hamsters infected with SARS-CoV-2 improved hamster lung pathology relative to a control group of hamsters (PBS).

[8] = human, cited from earlier work
[9] = test system: authentic SARS-CoV-2; test: microbe, parasite or virus in culture; format: cell-based
[10] = clinical; conditions: human, in vivo, po

## O=C(CC1NCCCC1O)Cn1cnc2cc(Br)c(Cl)cc2c1=O (racemic) [halofuginone]
[1]; Severe acute respiratory syndrome coronavirus 2, Vero C1008, read-out: IC50 of SARS-CoV-2 spike intracellular mRNA levels
  IC50: 34.9 nM
[1]
  reduction of SARS-CoV-2 spike intracellular mRNA levels: more than 20,000 fold
[2]
  cell viability: without affecting cell viability
[3]
  expression of core HSPGs (mAb 3G10): reduced the expression of core HSPGs in a dose-dependent manner
[4]
  cell viability: without affecting cell viability
[5]
  disaccharide composition of HS: No difference was seen in the disaccharide composition
[5]; 0.5 μM
  reduction of cell surface HS: ~4 fold
[6]; 18 hr incubation
  basal hepcidin expression: inhibits basal hepcidin expression
[6]; 24 hr incubation
  BMP6 induced expression of hepcidin: inhibits BMP6 induced expression of hepcidin
[7]; oral 1 mg/kg
  lung fibrosis, blood clotting, and inflammation: reduced lung fibrosis, blood clotting, and inflammation
[7]; oral dosing
  extended lung pathology: significant improvement
  lung pathology severity: significant improvement
  lung weight: significant improvement
  macroscopic lung pathology: significant improvement
[8]; phase I
  accumulation, exposure by day 15 of dosing: two- to three-fold higher exposure
  half-life: ~3 h
  oral bioavailability: orally bioavailable
[8]; single oral administration of 0.5 mg
  average Cmax: 0.54 ng/mL
[8]; single oral administration of 3.5 mg
  average Cmax: 3.09 ng/mL
[9]; Severe acute respiratory syndrome coronavirus 2, Vero C1008, Vero E6, excess proline in the media (4 mM), read-out: IC50 of SARS-CoV-2 infection, proline rescue experiment
  IC50: 210 nM
[9]; Severe acute respiratory syndrome coronavirus 2, Vero C1008, Vero E6, without excess proline, read-out: IC50 of SARS-CoV-2 infection, proline rescue experiment
  IC50: 12.5 nM
[9]; Severe acute respiratory syndrome coronavirus 2, Vero C1008, Vero E6, read-out: IC50 of SARS-CoV-2 infectivity, enantiomer comparison
  IC50: 28 nM
[9]; Severe acute respiratory syndrome coronavirus 2, Vero C1008, read-out: IC50 of SARS-CoV-2 infection
  IC50: 13 nM
[9]; Vero E6
  effect on authentic SARS-CoV-2 infection: inhibit SARS-CoV-2 infection
  potency compared to chloroquine: 100 fold
[9]; Vero E6, 50 nM
  inhibition of SARS-CoV-2 infectivity: completely inhibited SARS-CoV-2 infectivity
[9]; Vero E6, doses greater than 10 nM
  inhibition of SARS-CoV-2 infectivity: complete inhibition of SARS-CoV-2 infectivity
[10]; 0.5 mg
  Cmax: ~1.3 nM
[10]; 3.5 mg
  Cmax: ~7.4 nM
